The series can be described thus: Pharmacokinetics of 5-MeO-DMT and bufotenine after inhalation. The class given is in vivo, human. The settings on record: LLOQ 25 pg/ml. How it is done: Blood samples were obtained at 1; 2; 4; 7; 10; 15; 20; 30; 45 min and 1; 1.5; 2; 3; 4 hours after administration.
PK parameters were generated by algebraic analysis of the concentration versus time plots for each individual. The analysis was carried out using the software Phoenix WinNonlin 6.3.

In the case of `CN(C)CCc1c[nH]c2ccc(O)cc12` [bufotenine], the “samples with bufotenine concentration above LLOQ” value is reported as “Only in few samples”. Further, the bufotenine blood concentration (from 15 min onwards after 5-MeO-DMT inhalation) was < 25 pg/mL.

These data come from patent publication US20250241895A1 (GH RESEARCH IRELAND LIMITED, priority 2022, published 2025).
